# Measurements published in publication PMC5218480 (PLoS ONE, 2017).
# Tested on: MV-4-11 cells
# Experiment: Gene expression microarray analysis (Affymetrix PrimeView) and GSEA
# Format: cell-based, human
# Set-up: RFU PODN (11730768_x_at) / Fold change /veh PODN (11730768_x_at) / RFU LINC00158 (11744669_a_at) / Fold change /veh LINC00158 (11744669_a_at) / RFU DUSP10 (11751237_a_at) / Fold change /veh DUSP10 (11751237_a_at) / RFU ID3 (11757404_x_at) / Fold change /veh ID3 (11757404_x_at) / RFU PLEKHG5 (11737974_s_at) / Fold change /veh PLEKHG5 (11737974_s_at) / RFU LRRC4B (11730491_at) / Fold change /veh LRRC4B (11730491_at) / RFU GIMAP4 (11747438_a_at) / Fold change /veh GIMAP4 (11747438_a_at) / RFU KRT8 (11758183_x_at) / Fold change /veh KRT8 (11758183_x_at) / RFU CNN1 (11734310_a_at) / Fold change /veh CNN1 (11734310_a_at) / RFU VPS37D (11726825_at) / Fold change /veh VPS37D (11726825_at) / RFU C10orf10 (11716522_x_at) / Fold change /veh C10orf10 (11716522_x_at) / RFU KIR2DL2 /// KIR2DL4 /// KIR2DL5A /// KIR2DL5B /// KIR2DS1 /// KIR2DS2 /// KIR2DS3 /// KIR2DS4 /// KIR3DL3 /// KIR3DL3 /// KIR3DS1 (11738374_at) / Fold change /veh KIR2DL2 /// KIR2DL4 /// KIR2DL5A /// KIR2DL5B /// KIR2DS1 /// KIR2DS2 /// KIR2DS3 /// KIR2DS4 /// KIR3DL3 /// KIR3DL3 /// KIR3DS1 (11738374_at) / RFU C1QL1 (11718748_at) / Fold change /veh C1QL1 (11718748_at) / RFU TMPRSS4 (11747572_a_at) / Fold change /veh TMPRSS4 (11747572_a_at) / RFU HAMP (11756126_x_at) / Fold change /veh HAMP (11756126_x_at) / RFU RNFT2 (11725882_a_at) / Fold change /veh RNFT2 (11725882_a_at) / RFU NR4A2 (11747474_a_at) / Fold change /veh NR4A2 (11747474_a_at) / RFU ABCC12 (11746883_a_at) / Fold change /veh ABCC12 (11746883_a_at) / RFU TMEM136 (11760407_x_at) / Fold change /veh TMEM136 (11760407_x_at) / RFU CLDN22 /// WWC2 (11732394_at) / Fold change /veh CLDN22 /// WWC2 (11732394_at) / RFU HLA-DPB1 (11760878_x_at) / Fold change /veh HLA-DPB1 (11760878_x_at) / RFU SPINT1 (11716480_a_at) / Fold change /veh SPINT1 (11716480_a_at) / RFU GAP43 (11754022_s_at) / Fold change /veh GAP43 (11754022_s_at) / RFU A4GNT (11735810_at) / Fold change /veh A4GNT (11735810_at) / RFU PRB3 (11715151_x_at) / Fold change /veh PRB3 (11715151_x_at) / RFU TUBB4B (11761932_at) / Fold change /veh TUBB4B (11761932_at) / RFU CAPN14 (11732068_a_at) / Fold change /veh CAPN14 (11732068_a_at) / RFU TMCC2 (11721928_a_at) / Fold change /veh TMCC2 (11721928_a_at) / RFU IRGQ (11745062_a_at) / Fold change /veh IRGQ (11745062_a_at) / RFU FAM174B (11720279_a_at) / Fold change /veh FAM174B (11720279_a_at) / RFU TMPRSS4 (11748680_a_at) / Fold change /veh TMPRSS4 (11748680_a_at) / RFU FAM212B (11763350_a_at) / Fold change /veh FAM212B (11763350_a_at) / RFU PLEKHG5 (11743358_a_at) / Fold change /veh PLEKHG5 (11743358_a_at) / RFU ZSCAN30 (11745921_a_at) / Fold change /veh ZSCAN30 (11745921_a_at) / RFU CMKLR1 (11741424_a_at) / Fold change /veh CMKLR1 (11741424_a_at) / RFU LOC101060620 /// MAPK8IP1 (11723275_at) / Fold change /veh LOC101060620 /// MAPK8IP1 (11723275_at) / RFU SPTSSB (11747773_x_at) / Fold change /veh SPTSSB (11747773_x_at) / RFU PRSS12 (11739890_at) / Fold change /veh PRSS12 (11739890_at) / RFU BIN1 (11741810_x_at) / Fold change /veh BIN1 (11741810_x_at) / RFU WNT11 (11732464_a_at) / Fold change /veh WNT11 (11732464_a_at) / RFU C10orf10 (11716521_a_at) / Fold change /veh C10orf10 (11716521_a_at) / RFU C5orf56 (11738089_at) / Fold change /veh C5orf56 (11738089_at) / RFU CYB561 (11721691_x_at) / Fold change /veh CYB561 (11721691_x_at) / RFU ANKRD19P (11752326_a_at) / Fold change /veh ANKRD19P (11752326_a_at) / RFU OR2T12 /// OR2T33 /// OR2T8 (11738714_s_at) / Fold change /veh OR2T12 /// OR2T33 /// OR2T8 (11738714_s_at) / RFU VCAN (11748164_a_at) / Fold change /veh VCAN (11748164_a_at) / RFU JSRP1 (11732532_at) / Fold change /veh JSRP1 (11732532_at) / RFU KRTAP10-11 (11738290_x_at) / Fold change /veh KRTAP10-11 (11738290_x_at) / RFU MYO3A (11730013_a_at) / Fold change /veh MYO3A (11730013_a_at) / RFU EBF3 (11725865_a_at) / Fold change /veh EBF3 (11725865_a_at) / RFU CAMK2N1 (11719241_x_at) / Fold change /veh CAMK2N1 (11719241_x_at) / RFU C5orf56 (11738088_a_at) / Fold change /veh C5orf56 (11738088_a_at) / RFU OLFML3 (11715873_a_at) / Fold change /veh OLFML3 (11715873_a_at) / RFU LOC100653217 /// NTM (11731650_a_at) / Fold change /veh LOC100653217 /// NTM (11731650_a_at) / RFU MAPK11 (11762145_a_at) / Fold change /veh MAPK11 (11762145_a_at) / RFU FIZ1 (11724087_x_at) / Fold change /veh FIZ1 (11724087_x_at) / RFU OASL (11726364_x_at) / Fold change /veh OASL (11726364_x_at) / RFU SOX15 (11748057_x_at) / Fold change /veh SOX15 (11748057_x_at) / RFU CD79A (11719716_a_at) / Fold change /veh CD79A (11719716_a_at) / RFU HIST1H1D (11736915_at) / Fold change /veh HIST1H1D (11736915_at) / RFU CASKIN2 (11723855_a_at) / Fold change /veh CASKIN2 (11723855_a_at) / RFU LOC730098 (11760151_x_at) / Fold change /veh LOC730098 (11760151_x_at) / RFU OR4N2 (11742367_at) / Fold change /veh OR4N2 (11742367_at) / RFU PRRT2 (11749266_a_at) / Fold change /veh PRRT2 (11749266_a_at) / RFU SNX32 (11753110_a_at) / Fold change /veh SNX32 (11753110_a_at) / RFU CDHR5 (11726645_a_at) / Fold change /veh CDHR5 (11726645_a_at) / RFU RCAN1 (11760418_a_at) / Fold change /veh RCAN1 (11760418_a_at) / RFU FAM167A (11723789_a_at) / Fold change /veh FAM167A (11723789_a_at) / RFU FAM26E (11764081_at) / Fold change /veh FAM26E (11764081_at) / RFU ISYNA1 (11749810_s_at) / Fold change /veh ISYNA1 (11749810_s_at) / RFU ACY1 (11761880_at) / Fold change /veh ACY1 (11761880_at) / RFU 11764098_at / Fold change /veh 11764098_at / RFU SAMD14 (11745864_x_at) / Fold change /veh SAMD14 (11745864_x_at) / RFU NPB (11741838_a_at) / Fold change /veh NPB (11741838_a_at) / RFU TMPRSS6 (11731388_a_at) / Fold change /veh TMPRSS6 (11731388_a_at) / RFU KRTAP10-2 (11738614_at) / Fold change /veh KRTAP10-2 (11738614_at) / RFU ARHGAP8 /// PRR5-ARHGAP8 (11727945_x_at) / Fold change /veh ARHGAP8 /// PRR5-ARHGAP8 (11727945_x_at) / RFU KRTAP5-7 /// NADSYN1 (11734609_at) / Fold change /veh KRTAP5-7 /// NADSYN1 (11734609_at) / RFU RASL12 (11751679_a_at) / Fold change /veh RASL12 (11751679_a_at) / RFU CDKN2B (11736163_a_at) / Fold change /veh CDKN2B (11736163_a_at) / RFU PRF1 (11729649_at) / Fold change /veh PRF1 (11729649_at) / RFU, ZNF638 /// ZNF638-IT1 / Fold change vs veh, ZNF638 /// ZNF638-IT1 / RFU, PANK3 / Fold change vs veh, PANK3 / RFU, SH3YL1 / Fold change vs veh, SH3YL1 / RFU, ZEB2 / Fold change vs veh, ZEB2 / RFU, NRIP1 / Fold change vs veh, NRIP1 / RFU, PTTG1IP / Fold change vs veh, PTTG1IP / RFU, CAPN2 / Fold change vs veh, CAPN2 / RFU, MED14 / Fold change vs veh, MED14 / RFU, SNORA58 / Fold change vs veh, SNORA58 / RFU, C1orf63 / Fold change vs veh, C1orf63 / RFU, LRRFIP1 / Fold change vs veh, LRRFIP1 / RFU, NDUFAF7 / Fold change vs veh, NDUFAF7 / RFU, SLC12A2 / Fold change vs veh, SLC12A2 / RFU, IBTK / Fold change vs veh, IBTK / RFU, ESF1 / Fold change vs veh, ESF1 / Fold change vs veh, TMEM50B / RFU, TAOK1 / Fold change vs veh, TAOK1 / RFU, ACBD3 / Fold change vs veh, ACBD3 / RFU, TMA16 / Fold change vs veh, TMA16 / RFU, RWDD3 / Fold change vs veh, RWDD3 / RFU, BCAT1 / Fold change vs veh, BCAT1 / RFU, EDEM3 / Fold change vs veh, EDEM3 / RFU, TMEM33 / Fold change vs veh, TMEM33 / RFU, WDR75 / Fold change vs veh, WDR75 / RFU, AHCTF1 / Fold change vs veh, AHCTF1 / RFU, TFRC / Fold change vs veh, TFRC / RFU, ZDHHC17 / Fold change vs veh, ZDHHC17 / RFU, NOM1 / Fold change vs veh, NOM1 / RFU, ARL8B / Fold change vs veh, ARL8B / RFU, ZBTB11 / Fold change vs veh, ZBTB11 / RFU, TAMM41 / Fold change vs veh, TAMM41 / RFU, KIAA1704 /// LOC100996395 / Fold change vs veh, KIAA1704 /// LOC100996395 / RFU, ING1 / Fold change vs veh, ING1 / RFU, TRMT61B / Fold change vs veh, TRMT61B / RFU, FUBP3 / Fold change vs veh, FUBP3 / RFU, TP53 / Fold change vs veh, TP53 / RFU, TNKS2 / Fold change vs veh, TNKS2 / RFU, ZFP14 / Fold change vs veh, ZFP14 / RFU, ACTR2 / Fold change vs veh, ACTR2 / RFU, PPP3R1 / Fold change vs veh, PPP3R1 / RFU, PIK3R1 / Fold change vs veh, PIK3R1 / RFU, HNRNPA1 / Fold change vs veh, HNRNPA1 / RFU, RNF170 / Fold change vs veh, RNF170 / RFU, ZNF28 / Fold change vs veh, ZNF28 / RFU, RNGTT / Fold change vs veh, RNGTT / RFU, OGT / Fold change vs veh, OGT / RFU, BRD1 / Fold change vs veh, BRD1 / RFU, MARS / Fold change vs veh, MARS / RFU, ZNF655 / Fold change vs veh, ZNF655 / RFU, FAHD1 / Fold change vs veh, FAHD1 / RFU, BDP1 / Fold change vs veh, BDP1 / RFU, LRRCC1 / Fold change vs veh, LRRCC1 / RFU, ARID1A / Fold change vs veh, ARID1A / RFU, ZNF146 / Fold change vs veh, ZNF146 / RFU, ZNF330 / Fold change vs veh, ZNF330 / RFU, GPN3 / Fold change vs veh, GPN3 / RFU, C9orf123 / Fold change vs veh, C9orf123 / RFU, N4BP2L2 / Fold change vs veh, N4BP2L2 / RFU, ARFIP1 / Fold change vs veh, ARFIP1 / RFU, FAM179B / Fold change vs veh, FAM179B / RFU, BCL10 / Fold change vs veh, BCL10 / RFU, UHRF1BP1L / Fold change vs veh, UHRF1BP1L / RFU, BET1 / Fold change vs veh, BET1 / RFU, CNOT2 / Fold change vs veh, CNOT2 / RFU, ZNF268 / Fold change vs veh, ZNF268 / Fold change vs veh, ZNF507 / RFU, DGCR2 / Fold change vs veh, DGCR2 / RFU, WDSUB1 / Fold change vs veh, WDSUB1 / Fold change vs veh, HSP90B1 /// MIR3652 / RFU, ADSS / Fold change vs veh, ADSS / RFU, GK / Fold change vs veh, GK / RFU, ZNF148 / Fold change vs veh, ZNF148 / RFU, TAF9 / Fold change vs veh, TAF9 / RFU, SLC1A5 / Fold change vs veh, SLC1A5 / RFU, SLMO2 / Fold change vs veh, SLMO2 / RFU, ABCC4 / Fold change vs veh, ABCC4 / RFU, LOC101060439 /// RAP1B / Fold change vs veh, LOC101060439 /// RAP1B / RFU, RFX7 / Fold change vs veh, RFX7 / RFU, GTPBP10 / Fold change vs veh, GTPBP10 / RFU, CNEP1R1 / Fold change vs veh, CNEP1R1 / RFU, BIVM-ERCC5 /// ERCC5 / Fold change vs veh, BIVM-ERCC5 /// ERCC5 / RFU, ILF3 / Fold change vs veh, ILF3 / RFU 11762660_at / Fold change /veh 11762660_at / RFU VCAN (11757783_s_at) / Fold change /veh VCAN (11757783_s_at) / RFU DDX43 (11728927_at) / Fold change /veh DDX43 (11728927_at) / RFU KRT8 (11758188_x_at) / Fold change /veh KRT8 (11758188_x_at) / RFU NKD1 (11759106_at) / Fold change /veh NKD1 (11759106_at) / RFU SRD5A1 (11742802_a_at) / Fold change /veh SRD5A1 (11742802_a_at) / RFU TPSAB1 /// TPSB2 (11721975_s_at) / Fold change /veh TPSAB1 /// TPSB2 (11721975_s_at) / RFU GSTM3 (11746129_a_at) / Fold change /veh GSTM3 (11746129_a_at) / RFU IL23R (11737362_x_at) / Fold change /veh IL23R (11737362_x_at) / RFU TMEM51 (11727254_a_at) / Fold change /veh TMEM51 (11727254_a_at) / RFU PIWIL2 (11732686_x_at) / Fold change /veh PIWIL2 (11732686_x_at) / RFU ORM1 (11744905_x_at) / Fold change /veh ORM1 (11744905_x_at) / RFU CCDC152 (11743942_at) / Fold change /veh CCDC152 (11743942_at) / RFU ECM1 (11717891_a_at) / Fold change /veh ECM1 (11717891_a_at) / RFU IL23R (11748794_a_at) / Fold change /veh IL23R (11748794_a_at) / RFU TNFAIP8L3 (11732012_x_at) / Fold change /veh TNFAIP8L3 (11732012_x_at) / RFU MBOAT4 (11741988_at) / Fold change /veh MBOAT4 (11741988_at) / RFU 11764193_at / Fold change /veh 11764193_at / RFU TMEM53 (11763286_at) / Fold change /veh TMEM53 (11763286_at) / RFU MAGEB2 (11727129_at) / Fold change /veh MAGEB2 (11727129_at) / RFU TMEM200A (11744735_a_at) / Fold change /veh TMEM200A (11744735_a_at) / RFU CCDC152 (11751479_a_at) / Fold change /veh CCDC152 (11751479_a_at) / RFU FAM211A (11726209_a_at) / Fold change /veh FAM211A (11726209_a_at) / RFU RGS16 (11746705_a_at) / Fold change /veh RGS16 (11746705_a_at) / RFU VCAN (11755009_s_at) / Fold change /veh VCAN (11755009_s_at) / RFU RHOB (11743442_s_at) / Fold change /veh RHOB (11743442_s_at) / RFU RGS16 (11720943_a_at) / Fold change /veh RGS16 (11720943_a_at) / RFU RGS16 (11720944_at) / Fold change /veh RGS16 (11720944_at) / RFU, VPS4B / Fold change vs veh, VPS4B / RFU, CREB1 / Fold change vs veh, CREB1 / RFU, DNAJC13 / Fold change vs veh, DNAJC13 / RFU, GNAQ / Fold change vs veh, GNAQ / RFU, CDK5R1 / Fold change vs veh, CDK5R1 / RFU, ZRANB3 / Fold change vs veh, ZRANB3 / RFU, CUL4A / Fold change vs veh, CUL4A / RFU, CCNY / Fold change vs veh, CCNY / RFU, UFL1 / Fold change vs veh, UFL1 / RFU, COG3 / Fold change vs veh, COG3 / RFU, DIAPH2 / Fold change vs veh, DIAPH2 / RFU, SKA2 / Fold change vs veh, SKA2 / RFU, AFF3 / Fold change vs veh, AFF3 / RFU, LMF1 / Fold change vs veh, LMF1 / RFU, IPO11 / Fold change vs veh, IPO11 / RFU, DFFB / Fold change vs veh, DFFB / RFU, FOXP1 / Fold change vs veh, FOXP1 / RFU, CARD8 / Fold change vs veh, CARD8 / RFU, STRN3 / Fold change vs veh, STRN3 / RFU, ADK / Fold change vs veh, ADK / RFU, RASSF2 / Fold change vs veh, RASSF2 / RFU, WIPF1 / Fold change vs veh, WIPF1 / RFU, LARP1B / Fold change vs veh, LARP1B / RFU, RASA1 / Fold change vs veh, RASA1 / RFU, RB1 / Fold change vs veh, RB1 / RFU, PPFIA1 / Fold change vs veh, PPFIA1 / RFU, MAT2A / Fold change vs veh, MAT2A / RFU, CCT5 / Fold change vs veh, CCT5 / RFU, WDR92 / Fold change vs veh, WDR92 / RFU, CUX1 / Fold change vs veh, CUX1 / RFU, TTC7A / Fold change vs veh, TTC7A / RFU, TMEM135 / Fold change vs veh, TMEM135 / RFU, DEPTOR / Fold change vs veh, DEPTOR / RFU, CPM / Fold change vs veh, CPM / RFU, DNAJB6 / Fold change vs veh, DNAJB6 / RFU, CACNA2D3 / Fold change vs veh, CACNA2D3 / RFU, DTX4 / Fold change vs veh, DTX4 / RFU, TFCP2 / Fold change vs veh, TFCP2 / RFU, GMCL1 /// GMCL1P1 / Fold change vs veh, GMCL1 /// GMCL1P1 / RFU, AEBP2 / Fold change vs veh, AEBP2 / RFU, SNHG1 /// SNORD22 /// SNORD25 /// SNORD26 /// SNORD27 /// SNORD28 /// SNORD29 /// SNORD31 / Fold change vs veh, SNHG1 /// SNORD22 /// SNORD25 /// SNORD26 /// SNORD27 /// SNORD28 /// SNORD29 /// SNORD31 / Fold change (Aza/veh), C12orf56 (ProbeSet 11735607_a_at) / Fold change (ACY-1035/veh), C12orf56 (ProbeSet 11735607_a_at) / Fold change (Aza/veh), FGFR1OP (ProbeSet 11751329_s_at) / Fold change (ACY-1035/veh), FGFR1OP (ProbeSet 11751329_s_at) / Fold change (Aza/veh), VPS36 (ProbeSet 11739960_a_at) / Fold change (ACY-1035/veh), VPS36 (ProbeSet 11739960_a_at) / RFU SYPL1 (11715823_x_at) / Fold change /veh SYPL1 (11715823_x_at) / RFU IGFBP7 (11715501_s_at) / Fold change /veh IGFBP7 (11715501_s_at) / RFU REEP3 (11722064_at) / Fold change /veh REEP3 (11722064_at) / RFU IGLL1 (11728026_x_at) / Fold change /veh IGLL1 (11728026_x_at): dose or concentration left out as unconfirmed
# Conditions: ProbeSet 11727641_at; LIST B
smiles,measurement,value
Nc1ncn([C@@H]2O[C@H](CO)[C@@H](O)[C@H]2O)c(=O)n1 [azacitidine],"RFU, NOM1",178.62 RFU
